Source: article PMC3845967 (ACS medicinal chemistry letters, 2013)

How the values were obtained:
[1] = test system: fibroblasts or normal epithelial cells; conditions: cited from earlier work
[2] = test system: mouse embryonic fibroblasts (MEFs); test: MTT toxicity assay, mouse embryonic fibroblasts; type: cell-based; conditions: for EC50: Mus musculus, Fibroblast
[3] = test system: MDA-MB-231 breast cancer cells; test: MTT anti-proliferative assay, MDA-MB-231 cells; type: cell-based
[4] = test system: MCF7 breast cancer cells; test: MTT anti-proliferative assay, MCF7 cells; type: cell-based
[5] = test system: MDA-MB-231 and MCF7 breast cancer cells; type: cell-based; conditions: for EC50: 72 h, read-out: EC50 (span over series and cell lines); for effect of substitution on activity compared to MKT-077: either cell line (MDA-MB-231, MCF7)
[6] = target: human Hsc70 (Homo sapiens, UniProt P11142); test: ELISA binding of biotinylated analogs to immobilized Hsc70
Sequence of human Hsc70 (P11142 whole entry): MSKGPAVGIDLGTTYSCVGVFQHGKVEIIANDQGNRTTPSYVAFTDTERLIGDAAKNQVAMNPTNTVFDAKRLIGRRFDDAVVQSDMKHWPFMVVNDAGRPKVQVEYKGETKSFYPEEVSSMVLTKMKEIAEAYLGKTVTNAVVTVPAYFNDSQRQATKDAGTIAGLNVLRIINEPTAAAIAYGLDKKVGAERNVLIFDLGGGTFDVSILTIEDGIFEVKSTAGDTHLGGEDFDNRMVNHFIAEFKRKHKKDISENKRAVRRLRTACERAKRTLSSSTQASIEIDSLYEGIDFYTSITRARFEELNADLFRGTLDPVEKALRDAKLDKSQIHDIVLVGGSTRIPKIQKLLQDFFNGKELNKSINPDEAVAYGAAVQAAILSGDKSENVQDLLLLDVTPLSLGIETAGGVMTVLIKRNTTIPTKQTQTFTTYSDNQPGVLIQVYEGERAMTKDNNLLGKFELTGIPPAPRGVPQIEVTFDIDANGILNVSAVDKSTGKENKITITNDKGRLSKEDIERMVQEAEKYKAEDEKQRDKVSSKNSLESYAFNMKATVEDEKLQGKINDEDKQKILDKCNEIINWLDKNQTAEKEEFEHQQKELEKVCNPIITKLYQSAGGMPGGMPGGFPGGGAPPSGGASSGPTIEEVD

[7] = test system: MDA-MB-231 and MCF7 cells; test: p62 oligomerization / autophagic flux; type: cell-based; conditions: 24 h
[8] = test system: MDA-MB-231 cells; test: Cleavage of caspase-3 and PARP; type: cell-based; conditions: 48 h

## CCn1c(=O)/c(=C2\Sc3ccccc3N2C)s/c1=C\c1cccc[n+]1C.[Cl-] [YM-01, reference compound]
[1]
  toxicity to fibroblasts or normal epithelial cells: not toxic
[2]
  EC50: > 50 µM

## CCn1c(=O)/c(=C2\Sc3cccc(F)c3N2C)s/c1=C\c1scc[n+]1Cc1ccccc1.[Cl-] [compound 27]
[3]
  fold improvement in potency compared to MKT-077: more than 3 fold
[4]
  fold improvement in potency compared to MKT-077: 2 fold
[2]
  activity against MEFs compared to MKT-077: increased activity against MEFs

## CCn1c(=O)/c(=C2\Sc3c(F)cccc3N2C)s/c1=C\c1cccc[n+]1CC [compound 8]
[5]
  EC50: 0.8 to 13 µM

## CCn1c(=O)/c(=C2\Sc3ccc(F)cc3N2C)s/c1=C\c1cccc[n+]1CC [compound 6]
[5]
  EC50: 0.8 to 13 µM

## CCn1c(=O)/c(=C2\Sc3ccc(OC)cc3N2C)s/c1=C\c1cccc[n+]1C [compound 13]
[5]
  EC50: 3 to 30 µM

## CCn1c(=O)/c(=C2\Sc3ccccc3N2C)s/c1=C\c1nccc[n+]1C.[Cl-] [compound 23]
[5]; compared to MKT-077
  fold reduction in potency: approximately 2 fold

## CCn1c(=O)/c(=C2\Sc3ccc(C(F)(F)F)cc3N2C)s/c1=C\c1cccc[n+]1C [compound 15]
[5]
  EC50: 3 to 30 µM

## CCn1c(=O)/c(=C2\Sc3ccc(Cl)cc3N2C)s/c1=C\c1cccc[n+]1C [compound 10]
[5]
  EC50: 4.1 to 28 µM

## CCn1c(=O)/c(=C2\Sc3cc(F)ccc3N2C)s/c1=C\c1cccc[n+]1CC [compound 7]
[5]
  EC50: 0.8 to 13 µM

## CCn1c(=O)/c(=C2\Sc3cccc(F)c3N2C)s/c1=C\c1cccc[n+]1CCCCCCNC(=O)CCCC[C@@H]1SC[C@@H]2NC(=O)N[C@@H]21 [compound 34]
[6]
  Kd: 10.9 ± 4.4 µM

## CCn1c(=O)/c(=C2\Sc3c(Cl)cccc3N2C)s/c1=C\c1cccc[n+]1C [compound 12]
[5]
  EC50: 4.1 to 28 µM

## CCn1c(=O)/c(=C2\Sc3cccc(Cl)c3N2C)s/c1=C\c1cccc[n+]1C [compound 9]
[5]
  EC50: 4.1 to 28 µM

## C=CCn1c(=O)/c(=C2\Sc3ccccc3N2C)s/c1=C\c1cccc[n+]1C.[Cl-] [compound 17]
[5]
  effect of substitution on activity compared to MKT-077: did not substantially affect activity

## CCn1c(=O)/c(=C2\Sc3ccccc3N2C)s/c1=C\c1cccc[n+]1CC.[Cl-] [MKT-077, reference compound]
[1]
  toxicity to fibroblasts or normal epithelial cells: not toxic
[2]
  EC50: > 50 µM

## CCn1c(=O)/c(=C2\Sc3cc(OC)ccc3N2C)s/c1=C\c1cccc[n+]1C [compound 14]
[5]
  EC50: 3 to 30 µM

## CCn1c(=O)/c(=C2\Sc3cc(C(F)(F)F)ccc3N2C)s/c1=C\c1cccc[n+]1C [compound 16]
[5]
  EC50: 3 to 30 µM

## CCn1c(=O)/c(=C2\Sc3cc(F)ccc3N2C)s/c1=C\c1cccc[n+]1C [compound 3]
[5]
  EC50: 2.2 to 18 µM

## CCn1c(=O)/c(=C2\Sc3cc(Cl)ccc3N2C)s/c1=C\c1cccc[n+]1C [compound 11]
[5]
  EC50: 4.1 to 28 µM

## CCn1c(=O)/c(=C2\Sc3ccccc3N2C)s/c1=C\c1scc[n+]1Cc1ccccc1.[Cl-] [compound 26]
[3]
  fold improvement in potency compared to MKT-077: 2 fold
[4]
  fold improvement in potency compared to MKT-077: 4 fold

## CCn1c(=O)/c(=C2\Sc3cccc(F)c3N2C)s/c1=C\c1scc[n+]1Cc1ccc(CNC(=O)CCCC[C@@H]2SC[C@@H]3NC(=O)N[C@@H]32)cc1 [compound 32]
[6]
  Kd: 2.4 ± 0.4 µM

## CCn1c(=O)/c(=C2\Sc3cccc(F)c3N2C)s/c1=C\c1cccc[n+]1CC [compound 5]
[5]
  EC50: 0.8 to 13 µM

## CCn1c(=O)/c(=C2\Sc3ccccc3N2C)s/c1=C\c1scc[n+]1C.[Cl-] [compound 24]
[4]
  fold improvement in potency compared to MKT-077: 3 fold

## CCn1c(=O)/c(=C2\Sc3cc(Cl)ccc3N2C)s/c1=C\c1scc[n+]1Cc1ccccc1.[Cl-] [compound 30]
[7]
  autophagic flux (p62 oligomerization, p62 monomer): strongly affected autophagic flux
[8]
  cleavage of caspase-3 and PARP: activated
[2]
  activity against MEFs compared to MKT-077: increased activity against MEFs

## CCn1c(=O)/c(=C2\Sc3c(F)cccc3N2C)s/c1=C\c1cccc[n+]1C [compound 4]
[5]
  EC50: 2.2 to 18 µM

## CCn1c(=O)/c(=C2\Sc3ccc(F)cc3N2C)s/c1=C\c1cccc[n+]1C [compound 2]
[5]
  EC50: 2.2 to 18 µM

## CCn1c(=O)/c(=C2\Sc3cccc(Cl)c3N2C)s/c1=C\c1cccc[n+]1CCCCCCNC(=O)CCCC[C@@H]1SC[C@@H]2NC(=O)N[C@@H]21 [compound 38]
[6]
  Kd: 7.7 ± 1 µM

## CCn1c(=O)/c(=C2\Sc3cccc(F)c3N2C)s/c1=C\c1cccc[n+]1C [compound 1]
[5]
  EC50: 2.2 to 18 µM

## CN1/C(=c2\s/c(=C\c3cccc[n+]3C)n(Cc3ccccc3)c2=O)Sc2ccccc21.[Cl-] [compound 18]
[5]
  effect of substitution on activity compared to MKT-077: did not substantially affect activity

## CCn1c(=O)/c(=C2\Sc3ccccc3N2C)s/c1=C\c1cccc[n+]1Cc1ccccc1.[Cl-] [compound 20]
[5]; MDA-MB-231 and MCF7 cells
  fold improvement in activity compared to MKT-077: approximately 2 fold
